A word on the IC50: it is the concentration that inhibits the measured activity by half. A lower IC50 goes with greater potency.

Here are results for nine molecules from patent US8962648B2, “Tricyclic compounds and PBK inhibitors containing the same” (OncoTherapy Science, Inc., priority 2010, dated 2015).

Where a name gives a salt, the structure may show the parent alone. Read-outs that look alike come from different tables or passages of the source.

In assay [1] the target is PBK (Homo sapiens (Human), UniProt Q96KB5). Briefly: Kinase assay (IMAP fluorescence polarization, FITC-labeled histone H3 peptide). The class given is biochemical. Here is the method:
PBK activity was determined in the presence or absence of compounds using fluorescein isothiocyanate-labeled (FITC-labeled) histone H3 peptide as a substrate. […] The serially diluted compounds, 0.8 ng/micro-L PBK (Carna Biosciences) and 100 nM FITC-labeled histone H3 peptide were reacted in a reaction buffer (20 mM HEPES, 0.01% Tween-20, 0.3 mM MgCl2, 2 mM dithiothreitol, 50 micro-M ATP, pH 7.4) at room temperature for 1 hour. The reaction was stopped by the addition of three fold assay volume of progressive binding solution. […] IC50 values were calculated by nonlinear four parameter fit using SigmaPlot, version 10.0 (Systat Software, Inc.).
In general terms: Fluorescence polarisation rises when a labelled molecule tumbles more slowly, as on binding a larger partner.

Assay [2] has as its system A549 cells. Description: Cell-based assay, cellular growth (Cell Counting Kit-8, 72 hours). As for the experimental part: (§1) 100 micro-L of cell suspension was seeded onto 96-well microtiter plate (ViewPlate-96FTC, PerkinElmer). […] Cellular growth was determined using Cell Counting Kit-8 (DOJINDO) at 72 hours after the exposure of the candidate inhibitors. […] Accurate IC50 values were calculated as described previously.
On the technique in general: Formazan colour is commonly taken as a measure of viable cells.

Assay [3] relates to BT-549 cells. The assay is described as above. The following applies: Homo sapiens, BT549 cells. Here is the method: as §1
Assay [4] deals with T47D cells. The description is as above. Here is the method:
as §1

Assay [5] concerns HT-1197 cells. Description: Cell-based assay, cellular growth (Cell Counting Kit-8, 72 hours), PBK-negative control cells. As for the experimental part:
as §1

[6] abbreviates: PBK 0.8 ng/micro-L, 50 micro-M ATP, 100 nM FITC-labeled histone H3 peptide, room temperature 1 hour, hydrobromide.
The mark [7] stands for this setting: HT1197 cells (PBK-negative control), hydrobromide.

Chain of PBK (Q96KB5 whole entry): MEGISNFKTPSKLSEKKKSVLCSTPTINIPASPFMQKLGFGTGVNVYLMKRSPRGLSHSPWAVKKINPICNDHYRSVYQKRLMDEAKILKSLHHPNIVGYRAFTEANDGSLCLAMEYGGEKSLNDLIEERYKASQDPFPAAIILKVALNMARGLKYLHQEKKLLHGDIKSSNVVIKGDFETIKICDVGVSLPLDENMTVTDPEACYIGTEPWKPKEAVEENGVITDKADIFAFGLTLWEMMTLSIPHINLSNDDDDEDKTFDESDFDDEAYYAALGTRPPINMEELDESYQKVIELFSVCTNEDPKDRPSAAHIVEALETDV

As to `CC(N)c1ccc(-c2c(O)cc(Cl)c3[nH]c(=O)c4sccc4c23)cc1` (stereo not drawn) [Compound 1041, 9-(4-(1-aminoethyl)phenyl)-6-chloro-8-hydroxythieno[2,3-c]quinolin-4(5H)-one hydrochloride], the 50% inhibitory concentration (IC50) in assay [1] is 12 nM; in assay [2] (Homo sapiens, A549, 72 h), 160 nM; in assay [3], 190 nM; in assay [4] (Homo sapiens, T47D, 72 h), 340 nM; in assay [5] (Homo sapiens, HT1197, 72 h), 650 nM.
Turning to `Cc1cc(O)c(-c2ccc([C@H](C)CN)c(F)c2)c2c1[nH]c(=O)c1sccc12` [Compound 1304, (S)-9-(4-(1-aminopropan-2-yl)-3-fluorophenyl)-8-hydroxy-6-methylthieno[2,3-c]quinolin-4(5H)-one hydrobromide], the IC50 is 13 nM in assay [1] (setting [6]), 99 nM in assay [2] (hydrobromide), 120 nM in assay [4] (hydrobromide) and 340 nM in assay [5] (setting [7]).
`CNC[C@H](C)c1ccc(-c2c(O)cc(C)c3[nH]c(=O)c4sccc4c23)cc1` [Compound 1306, (R)-8-hydroxy-6-methyl-9-(4-(1-(methylamino)propan-2-yl)phenyl)thieno[2,3-c]quinolin-4(5H)-one hydrochloride]: the IC50 in assay [1] (PBK 0.8 ng/micro-L, 50 micro-M ATP, 100 nM FITC-labeled histone H3 peptide, room temperature 1 hour, hydrochloride) stood at 7.3 nM; in assay [2] (hydrochloride), 20 nM; in assay [4] (hydrochloride), 35 nM; in assay [5] (HT1197 cells (PBK-negative control), hydrochloride), 73 nM.
With `Cc1cc(O)c(-c2ccc([C@@H](C)CN)c(F)c2)c2c1[nH]c(=O)c1sccc12` [Compound 1319, (R)-9-(4-(1-aminopropan-2-yl)-3-fluorophenyl)-8-hydroxy-6-methylthieno[2,3-c]quinolin-4(5H)-one hydrobromide], the IC50 in assay [1] (setting [6]) was 3.4 nM; in assay [2] (hydrobromide), 14 nM; in assay [4] (hydrobromide), 16 nM; in assay [5] (setting [7]) it was 54 nM.
On to `Cc1cc(O)c(-c2ccc([C@@H](C)CN(C)C)cc2)c2c1[nH]c(=O)c1sccc12` [Compound 1324, (R)-9-(4-(1-(dimethylamino)propan-2-yl)phenyl)-8-hydroxy-6-methylthieno[2,3-c]quinolin-4(5H)-one hydrochloride], for which the IC50 in assay [2] (Homo sapiens) stood at 24 nM; in assay [3], 30 nM; in assay [4] (Homo sapiens) it was 66 nM.
For `CCN(C)C[C@H](C)c1ccc(-c2c(O)cc(C)c3[nH]c(=O)c4sccc4c23)cc1` [Compound 1379, (R)-9-(4-(1-(ethyl(methyl)amino)propan-2-yl)phenyl)-8-hydroxy-6-methylthieno[2,3-c]quinolin-4(5H)-one hydrochloride], the IC50 in assay [1] is 76 nM; in assay [2] (Homo sapiens, A549, 72 h) it was 110 nM; in assay [4] (Homo sapiens, T47D, 72 h), 280 nM; in assay [5] (Homo sapiens, HT1197, 72 h) it was 310 nM.
On the same counts, the results for `CC[C@@H](CNC)c1ccc(-c2c(O)cc(C)c3[nH]c(=O)c4sccc4c23)cc1` [Compound 1380, (R)-8-hydroxy-6-methyl-9-(4-(1-(methylamino)butan-2-yl)phenyl)thieno[2,3-c]quinolin-4(5H)-one hydrochloride] are 85 nM, 96 nM, 240 nM and 370 nM.
On to `Cc1cc(O)c(-c2ccc([C@H](C)CN(C)C)c(F)c2)c2c1[nH]c(=O)c1sccc12` [Compound 1399, (S)-9-(4-(1-(dimethylamino)propan-2-yl)-3-fluorophenyl)-8-hydroxy-6-methylthieno[2,3-c]quinolin-4(5H)-one hydrochloride], for which the IC50 worked out at 58 nM in assay [1]; 180 nM in assay [2] (Homo sapiens, A549, 72 h); 450 nM in assay [4] (Homo sapiens, T47D, 72 h); 470 nM in assay [5] (Homo sapiens, HT1197, 72 h).
On to `Cc1cc(O)c(-c2ccc(N(C)CCN)cc2)c2c1[nH]c(=O)c1sccc12` [Compound 1400, 9-(4-((2-aminoethyl)(methyl)amino)phenyl)-8-hydroxy-6-methylthieno[2,3-c]quinolin-4(5H)-one hydrochloride], for which the half-maximal inhibitory concentration (IC50) amounted to 60 nM in assay [1] (PBK 0.8 ng/micro-L, 50 micro-M ATP, 100 nM FITC-labeled histone H3 peptide, room temperature 1 hour); 900 nM in assay [2] (Homo sapiens, A549, 72 h); 1400 nM in assay [4] (Homo sapiens, T47D, 72 h); 2800 nM in assay [5] (Homo sapiens, HT1197, 72 h).
